Test results from ChEMBL document CHEMBL1131793, “Discovery of FR166124, a novel water-soluble pyrazolo-[1,5-a]pyridine adenosine A1 receptor antagonist” (Bioorg Med Chem Lett, 1999).

Tests used:
Adenosine receptor A1 = target: T1, Adenosine receptor A1 (Rattus norvegicus, UniProt P25099); test: Inhibitory activity against Adenosine A1 Receptor using [3H]CHA in rat cortical membranes; format: cell membranes
T1 sequence (P25099 whole entry): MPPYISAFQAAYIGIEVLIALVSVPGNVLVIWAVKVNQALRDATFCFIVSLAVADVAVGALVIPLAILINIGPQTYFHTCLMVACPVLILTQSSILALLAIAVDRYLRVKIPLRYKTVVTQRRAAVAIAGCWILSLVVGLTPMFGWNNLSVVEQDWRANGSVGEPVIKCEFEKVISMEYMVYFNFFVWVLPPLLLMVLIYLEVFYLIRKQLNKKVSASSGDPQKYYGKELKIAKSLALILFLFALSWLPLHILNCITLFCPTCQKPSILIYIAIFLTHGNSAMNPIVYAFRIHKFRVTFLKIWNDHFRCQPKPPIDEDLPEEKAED

Adenosine receptor A2a = Adenosine receptor A2a (Rattus norvegicus, UniProt P30543); test: Inhibitory activity against Adenosine A2a receptor using [3H]NECA in rat striatal membranes; format: cell membranes, Striatum, Membrane
[1] = Water solubility was measured; format: ADME

Sequence of Adenosine receptor A2a (P30543 whole entry): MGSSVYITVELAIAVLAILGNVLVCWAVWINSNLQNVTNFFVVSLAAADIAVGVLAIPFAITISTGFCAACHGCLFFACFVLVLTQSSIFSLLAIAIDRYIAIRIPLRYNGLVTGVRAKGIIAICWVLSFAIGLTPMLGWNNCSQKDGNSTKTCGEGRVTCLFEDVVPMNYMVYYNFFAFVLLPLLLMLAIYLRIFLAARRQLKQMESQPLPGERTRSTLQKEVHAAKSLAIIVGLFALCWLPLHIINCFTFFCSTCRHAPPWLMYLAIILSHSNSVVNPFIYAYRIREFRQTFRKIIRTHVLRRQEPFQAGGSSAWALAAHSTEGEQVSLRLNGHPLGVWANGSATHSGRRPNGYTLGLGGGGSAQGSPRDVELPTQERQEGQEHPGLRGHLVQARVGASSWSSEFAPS

SMILES | IC50 (Adenosine receptor A1) [nM] | IC50 (Adenosine receptor A2a) [nM] | solubility [1] [µg/mL]
O=C(/C=C/c1c(-c2ccccc2)nn2ccccc12)N1CCCC[C@@H]1CCO [FK453] | 17 | 11000 | 
O=C([O-])CCCn1nc(-c2c(-c3ccccc3)nn3ccccc23)ccc1=O.[Na+] |  |  | 10000
O=C(O)CC1=C(n2nc(-c3c(-c4ccccc4)nn4ccccc34)ccc2=O)CCCCC1 | 16 | 5500 | 
O=C(O)CCCn1nc(-c2c(-c3ccccc3)nn3ccccc23)ccc1=O | 120 | 5900 | 
O=C([O-])CC1=C(n2nc(-c3c(-c4ccccc4)nn4ccccc34)ccc2=O)CCCC1.[Na+] |  |  | > 200000
O=C(O)C[C@H]1CCCC[C@H]1n1nc(-c2c(-c3ccccc3)nn3ccccc23)ccc1=O | 34 | 5500 | 
O=C(O)CC1=C(n2nc(-c3c(-c4ccccc4)nn4ccccc34)ccc2=O)CCC1 | 11 | 840 | 
O=C(O)C[C@@H]1CCCC[C@H]1n1nc(-c2c(-c3ccccc3)nn3ccccc23)ccc1=O | 3.6 | 100 | 
O=C(O)CC1=C(n2nc(-c3c(-c4ccccc4)nn4ccccc34)ccc2=O)CCCC1 | 15 | 6200 | 
